Laboratory results from patent US12648913B2, “Polymeric nanocarriers and methods of use thereof” (Vanderbilt University, priority 2019, dated 2026).

Test system: MDA-MB-231 cells
Test: MTS proliferation assay on rigid or compliant substrates
Assay type: cell-based, human
Excerpt: This motivated the hypothesis that blocking Gli-activity in metastatic breast tumors could obstruct their potential to establish in bone and adopt a bone-destructive phenotype. […] It is important to note the large variability in tumor burden inherent to the intracardiac model as evidenced by the large standard error. Even with this variability in consideration, there is significant tumor burden in the 10% Aln-GANT58 treated mice despite maintenance of high bone area (FIG. 18C). Based on the present inventors' previous studies reporting that both rigid mineralized bone matrix and TGF-β drive Gli2 expression in bone-metastatic cancer cell lines, it was hypothesized that GANT58-BTNP treatment may have a spatially heterogeneous effect on tumor cells that mirrors the spatial variation in Gli2 expression. Therefore, the effect of GANT58-BTNP treatment on tumor cell proliferation was measured by measuring Ki67 via IHC (FIG. 14F). […]
Proliferation Assay. […] Cell proliferation was determined by MTS assay using the CellTiter 96 Aqueous Non-Radioactive Cell Proliferation Assay kit (Promega) per the manufacturer's instructions. Absorbance values were measured at OD 490 nm on a plate reader and normalized to no cell controls in the respective GelMA coated and uncoated wells.

c1cc(-c2sc(-c3ccncc3)c(-c3ccncc3)c2-c2ccncc2)ccn1 [GANT58]
proliferation of cells on compliant substrates (40 μM GANT58, GelMA gels): not on compliant substrates | proliferation of cells on rigid substrates (40 μM GANT58, tissue culture plastic): significantly reduced
